{"source": "patent US20110052727A1", "about": "“Anti Influenza Nutritional Supplements” (priority 2009, published 2011)", "origin": "cited, not measured here", "key": {"influenza A Bangkok 1/79": {"test_system": "influenza A Bangkok 1/79", "conditions": "Se- vs Se+ conditions; 24 hours post infection"}, "[1]": {"test_system": "influenza A/Bangkok/1/79 virus", "conditions": "selenium adequate diet, vs deficient diet still severe at day 21"}, "[2]": {"test_system": "influenza A/Kumamoto/1/65 virus"}, "MDCD cells": {"test_system": "MDCD cells", "conditions": "100 μg/ml"}, "MDCK cells [3]": {"test_system": "MDCK cells", "conditions": "up to 1 mM"}, "[4]": {"test_system": "influenza A/Chile/1/83 (H1N1) virus", "conditions": "500 μM"}, "MDCK cells [5]": {"test_system": "MDCK cells"}, "[6]": {"test_system": "influenza A/Chile/1/83 (H1N1) virus", "conditions": "MDCK cells; read-out: 50% effective inhibition concentration (EC50)"}, "MDCK cells [7]": {"test_system": "MDCK cells", "conditions": "read-out: dose that reduced cell viability about 50% (CC50)"}, "neuraminidase": {"target": "neuraminidase", "conditions": "read-out: concentration for reduction of half enzymatic activity (neuraminidase)"}, "[8]": {"test_system": "influenza A/Chile/1/83 (H1N1) virus", "conditions": "compared with ECG and EGC"}, "[9]": {"test_system": "Influenza A Virus (Strain A/Yamagata/120/86 H1N1)", "conditions": "1.5 μM; 60 min treatment"}, "[10]": {"test_system": "influenza virus A/Udorn/317/72(H3N2)", "conditions": "quercetin orally 1 mg/day for 5 consecutive days"}, "[11]": {"test_system": "influenza virus A/Puerto Rico/8/34 (H1N1)"}}, "note": "Read-outs that look alike come from different tables or passages of the source."}
{"compound": "[Se]", "note": "[selenium, Selenium]", "values": [{"measurement": "influenza-induced apoptosis", "setting": "influenza A Bangkok 1/79", "result": "Se deficiency enhanced influenza-induced apoptosis"}, {"measurement": "lung pathology", "setting": "[1]", "result": "began to diminish after day 6"}]}
{"compound": "CC1(C)[C@@H](O[C@H]2O[C@H](C(=O)O)[C@@H](O)[C@H](O)[C@H]2O[C@@H]2O[C@H](C(=O)O)[C@@H](O)[C@H](O)[C@H]2O)CC[C@]2(C)[C@H]3C(=O)C=C4[C@@H]5C[C@@](C)(C(=O)O)CC[C@]5(C)CC[C@@]4(C)[C@]3(C)CC[C@@H]12", "note": "[Glycyrrhizin]", "values": [{"measurement": "survival", "setting": "[2]; 10 mg/kg 1 day before and 1 and 4 days post infection, 10-50% lethal doses, saline controls no survivors", "result": "survived over the 21-day experimental period"}, {"measurement": "virus titers in the lungs, times lower than control mice", "setting": "[2]; 2 to 6 days after the infection", "result": "more than 10 times"}, {"measurement": "viral activity in the lungs", "setting": "[2]; day 6", "result": "not detected"}]}
{"compound": "CCOC(=O)C1=C[C@@H](OC(CC)CC)[C@H](NC(C)=O)[C@@H](N)C1", "note": "[Oseltamivir, reference compound]", "values": [{"measurement": "antiviral activity", "setting": "influenza A/WS/33 virus; 100 μg/ml, 2 days incubation", "result": "about 58%"}, {"measurement": "antiviral activity", "setting": "influenza A/WS/33 virus; concentrations of less than 10 μg/ml", "result": "less than 49%"}, {"measurement": "cell viability", "setting": "MDCD cells", "result": "about 100%"}]}
{"compound": "NC(=O)c1c[se]c([C@@H]2O[C@H](CO)[C@@H](O)[C@H]2O)n1", "note": "[Selenazofurin, selenazofurin]", "values": [{"measurement": "cytotoxic effect on cells", "setting": "MDCK cells [3]", "result": "no cytotoxic effect"}]}
{"compound": "C[C@@H]1O[C@@H](Oc2c(-c3ccc(O)c(O)c3)oc3cc(O)cc(O)c3c2=O)[C@H](O)[C@H](O)[C@H]1O", "note": "[Q3R, quercetin 3-rhamnoside]", "values": [{"measurement": "antiviral activity", "setting": "influenza A/WS/33 virus; 10 μg/ml, 2 days incubation", "result": "about 66%"}, {"measurement": "antiviral activity", "setting": "influenza A/WS/33 virus; 100 μg/ml, 2 days incubation", "result": "about 86%"}, {"measurement": "cell viability", "setting": "MDCD cells", "result": "about 100%"}]}
{"compound": "(−)-epigallocatechin gallate [EGCG]", "values": [{"measurement": "inhibition of viral RNA synthesis", "setting": "[4]", "result": "about 80%"}, {"measurement": "toxicity relative to derivatives", "setting": "MDCK cells [5]", "result": "less toxic than most of its derivatives"}, {"measurement": "EC50", "setting": "[6]", "result": "22 to 28", "unit": "µM"}, {"measurement": "CC50", "setting": "MDCK cells [7]", "result": "275 ± 22.8", "unit": "µM"}, {"measurement": "IC50", "setting": "neuraminidase", "result": "~350", "unit": "µM"}, {"measurement": "hemagglutination inhibition activity", "setting": "[8]", "result": "most effective"}, {"measurement": "inhibition of plaque forming activity", "setting": "[9]", "result": "~100", "unit": "%"}]}
{"compound": "O=C/C=C/c1ccccc1", "note": "[CA, trans-cinnamaldehyde]", "values": [{"measurement": "virus yield of control (maximum inhibitory effect)", "setting": "influenza A/PR/8 virus; 40 μM, treatment given 3 hours post infection", "result": 29.7, "unit": "%"}, {"measurement": "virus yield", "setting": "influenza A/PR/8 virus; 200 μM", "result": "undetectable level"}]}
{"compound": "O=c1c(O)c(-c2ccc(O)c(O)c2)oc2cc(O)cc(O)c12", "note": "[quercetin, Quercetin]", "values": [{"measurement": "epithelial damage and leukocytic influx", "setting": "[10]", "result": "significantly reduced"}, {"measurement": "superoxide radicals production levels", "setting": "[10]", "result": "significantly reduced their levels"}, {"measurement": "lipid peroxidation (LPO) products level after supplementation (raised by 85% in influenza group vs normal control)", "setting": "[10]; P<0.05", "result": 43, "unit": "%"}, {"measurement": "decrease of mortality in the control group (infected and did not exercise)", "setting": "[11]; quercetin 12.5 mg/kg via gavage for 7 days before viral challenge, 21 days monitoring", "result": 22, "unit": "%"}, {"measurement": "susceptibility to infection (morbidity, mortality, symptom severity on days 5-7) associated with stressful exercise", "setting": "[11]; quercetin 12.5 mg/kg via gavage for 7 days, P<0.05", "result": "offset the increase in susceptibility to infection"}]}
